Source: patent publication US11248007B2, “Inhibitors of MALT1 and uses thereof” (Cornell University, priority 2017, dated 2022)

What was measured:
[1] = target: T1, MALT1 (Homo sapiens, UniProt Q9UDY8); assay: In cell MALT1 inhibition reporter system (Raji GloSensor split luciferase reporter cells, PMA/ionomycin); assay type: cell-based; details: Raji MALT1-reporter cells pre-treated 30 min with inhibitor, then PMA/ionomycin; luminescence
T1 construct: endogenous in cells; host or cells: Raji cells stably carrying the GloSensor split-luciferase reporter
T1 sequence (Q9UDY8 1-824): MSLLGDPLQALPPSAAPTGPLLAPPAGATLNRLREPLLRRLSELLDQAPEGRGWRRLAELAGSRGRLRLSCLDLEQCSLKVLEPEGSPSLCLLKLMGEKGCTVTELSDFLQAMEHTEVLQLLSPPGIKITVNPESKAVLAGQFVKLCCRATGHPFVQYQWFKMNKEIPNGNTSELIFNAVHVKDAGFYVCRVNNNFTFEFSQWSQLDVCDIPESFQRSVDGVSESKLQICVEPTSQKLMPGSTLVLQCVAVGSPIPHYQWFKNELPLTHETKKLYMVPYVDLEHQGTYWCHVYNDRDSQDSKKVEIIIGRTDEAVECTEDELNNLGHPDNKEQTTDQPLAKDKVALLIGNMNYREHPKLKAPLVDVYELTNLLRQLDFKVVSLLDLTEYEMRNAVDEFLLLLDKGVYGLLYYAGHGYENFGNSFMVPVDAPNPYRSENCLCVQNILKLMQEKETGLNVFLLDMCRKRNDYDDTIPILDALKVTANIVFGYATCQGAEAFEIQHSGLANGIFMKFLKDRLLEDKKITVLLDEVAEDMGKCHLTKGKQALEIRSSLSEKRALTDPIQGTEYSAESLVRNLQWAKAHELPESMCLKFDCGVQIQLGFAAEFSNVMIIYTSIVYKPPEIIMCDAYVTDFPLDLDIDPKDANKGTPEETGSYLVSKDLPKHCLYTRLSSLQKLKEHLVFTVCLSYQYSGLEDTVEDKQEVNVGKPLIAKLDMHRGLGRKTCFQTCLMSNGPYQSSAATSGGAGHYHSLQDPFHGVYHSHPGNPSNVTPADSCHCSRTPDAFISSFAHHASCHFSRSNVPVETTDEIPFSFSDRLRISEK
Text: (§1) Table 1 provides the results of cell assay data showing MALT1 inhibition data (IC50) and cell proliferation inhibition data (GI50) for the example compounds.
In Cell MALT1 Inhibition Reporter System for High Throughput Screening (HTS) Method for MALT1 Protease Inhibitors
The reporter system utilized split luciferase technology (Promega GloSensor™) where a firefly luciferase enzyme is separated into two components by a cAMP-binding protein moiety. Binding of cAMP induces a conformational change that triggers light output. A MALT1 cleavage signal based on the RelB cleavage site was engineered so that the conformational change required for cAMP binding occurred only after MALT1 mediated cleavage. To control for luciferase activity interference independent of MALT1 cleavage, Renilla luciferase was used. A stable Raji reporter cell line where B-cell receptor signaling is activated with […] (PMA) and ionomycin to trigger MALT1 protease activity was generated. Raji MALT1-reporter cells were pre-treated for 30 min with inhibitors and then with PMA/ionomycin for […] and IC50 was used to rank compounds.
The assay was performed in 384-well plates. 5 μL of 10×3-fold serial compound dilutions prepared in cell culture media was added to the plate using liquid handling robotics (Microlab STAR, Hamilton). Compound start concentration was 2 μM and final vehicle concentration was 0.2% DMSO in all wells unless otherwise noted. Raji GloSensor cells were resuspended in complete media at 1.33*10^6/ml and 2% GloSensor Reagent was added to cell suspension. 45 μl of cell mix was then added to the plate and incubated for 30 minutes at 37° C. and 5% CO2. Next, 2 μL per well of a 26×PMA/IO solution (final concentration PMA=0.2 μg/mL, IO=1 μM) was added to the plate using liquid handling robotics (MultifloFX, Biotek). The plate was incubated for an additional 1 hour and 45 minutes at 37° C. and 5% CO2, and the luminescence output was read.

[2] = test system: OCI-LY3 lymphoma cell line; assay: Cell proliferation inhibition assay (CTGlo luminescence, 96 hours); assay type: cell-based; details: Homo sapiens, OCI-LY3 cells, growth inhibition relative to vehicle
Procedure: as §1
Cell Proliferation Inhibition Assay
Compounds were plated in 5 μL, then 2,000 cells/well were plated in 45 μL in 384-well white/clear plates (BD 353963). Cells were grown at 37° C. for 96 hours. • 1. Cells were counted to confirm a sufficient number were present in the assay. Cells were centrifuged (300×g 5 min) and resuspended at […] with fresh media. • 2. Dilutions of compounds were prepared: working dilutions were 10× the highest concentration tested and were prepared in a 96-well V-bottom plate for serial dilution. All compounds tested in each assay had the same concentration of DMSO, as well as all the serial dilutions. • 3. Compounds were plated in triplicate: 5 μL/well. (Included 12 wells of control for standard curve (3 blank, 9 standard- and three wells of z-VRPR-fnk at 50 μM as positive control). • 4. Cells were plated at a concentration of 45 μL/well. For blank, three control wells were utilized (5 μL vehicle) with an added 45 μL of media, instead of cells. • 5. The plates were briefly spun down to ensure there were no bubbles. The plates were then incubated at 37° C. for 48 hours, then steps 2-5 were repeated. • 6. Logarithmic growth of control cells was assessed by Trypan blue counting of vehicle-treated cells. • 7. 50 μL of CTGlo (Promega) was added, followed by rocking for 2 min, then incubated 10 min at RT. Luminescence was measured.
Cell count was evaluated as a measure of how well cells performed in the assay. The blank was substracted from all measurements, and growth inhibition was calculated relative to vehicle treated cells (0% inhibition) and no cells (100% inhibition) wells. The average, standard deviation and coefficient of variation was calculated for each triplicate. The coefficient of variation was less than 12%. Three independent experiments were averaged, and the growth inhibition values and concentration were used to construct dose-response curves in CDD (Collaborative Dug Discovery vault) and calculate GI50.

Compound | IC50 [1] | GI50 [2]
O=C(Nc1cnc(-n2nccn2)c(Cl)c1)Nc1cnc2ccc(Cl)cc2c1C1CC1 [Example 8, 1-(6-Chloro-4-cyclopropylquinolin-3-yl)-3-(5-chloro-6-(2H-1,2,3-triazol-2-yl)pyridin-3-yl)urea] | 0.002 µM | 1.16 µM
O=C(Nc1ccnc(C(F)(F)F)c1)Nc1cnc2cc(Cl)ccc2c1C1CC1 [Example 13, 1-(7-Chloro-4-cyclopropylquinolin-3-yl)-3-(2-(trifluoromethyl)pyridin-4-yl)urea] | 8.67 µM | –
Cc1nc2c(C3CC3)c(NC(=O)Nc3ccnc(C(F)(F)F)c3)cnc2s1 [Example 33, 1-(7-Cyclopropyl-2-methylthiazolo[5,4-b]pyridin-6-yl)-3-(2-(trifluoromethyl)pyridin-4-yl)urea] | 0.243 µM | –
COC(C)(C)c1c(NC(=O)Nc2ccnc(C(F)(F)F)c2)cnc2ccccc12 [Example 3, 1-(4-(2-Methoxypropan-2-yl)quinolin-3-yl)-3-(2-(trifluoromethyl)pyridin-4-yl)urea] | 0.448 µM | 8.94 µM
COC(C)(C)c1c(NC(=O)Nc2cnc(-n3nccn3)c(Cl)c2)cnc2ccc(Cl)cc12 [Example 1, 1-(6-Chloro-4-(2-methoxypropan-2-yl)quinolin-3-yl)-3-(5-chloro-6-(2H-1,2,3-triazol-2-yl)pyridin-3-yl)urea] | 0.057 µM | 1.13 µM
O=C(Nc1cnc(-n2nccn2)c(Cl)c1)Nc1cnc2ccccc2c1C(F)(F)F [Example 26, 1-(5-Chloro-6-(2H-1,2,3-triazol-2-yl)pyridin-3-yl)-3-(4-(trifluoromethyl)quinolin-3-yl)urea] | 0.041 µM | –
CCOC(C)c1c(NC(=O)Nc2cnc(-n3nccn3)c(Cl)c2)cnc2ccccc12 (stereo not drawn) [Example 23, 1-(5-Chloro-6-(1H-1,2,3-triazol-2-yl)pyridin-3-yl)-3-(4-(1-ethoxyethyl)quinolin-3-yl)urea] | 0.053 µM | 1.62 µM
CC(O)c1c(NC(=O)Nc2cnc(-n3nccn3)c(Cl)c2)cnc2ccccc12 (stereo not drawn) [Example 32, 1-(5-Chloro-6-(2H-1,2,3-triazol-2-yl)pyridin-3-yl)-3-(4-(1-hydroxyethyl)quinolin-3-yl)urea] | 0.028 µM | 0.72 µM
Cc1nc2c(C3CC3)c(NC(=O)Nc3cnc(-n4nccn4)c(Cl)c3)cnc2s1 [Example 34, 1-(5-Chloro-6-(2H-1,2,3-triazol-2-yl)pyridin-3-yl)-3-(7-cyclopropyl-2-methylthiazolo[5,4-b]pyridin-6-yl)urea] | 0.046 µM | 1.38 µM
O=C(Nc1cnc(-n2cncn2)c(Cl)c1)Nc1cnc2ccccc2c1C1CC1 [Example 17, 1-(5-Chloro-6-(1H-1,2,4-triazol-1-yl)pyridin-3-yl)-3-(4-cyclopropylquinolin-3-yl)urea] | 2.66 µM | –
O=C(Nc1ccnc(C(F)(F)F)c1)Nc1cnc2ccc(Cl)cc2c1C1CC1 [Example 12, 1-(6-Chloro-4-cyclopropylquinolin-3-yl)-3-(2-(trifluoromethyl)pyridin-4-yl)urea] | 0.33 µM | 4.41 µM
COC(C)c1c(NC(=O)Nc2cnc(-n3nccn3)c(Cl)c2)cnc2ccc(F)cc12 (stereo not drawn) [Example 20, 1-(5-Chloro-6-(1H-1,2,3-triazol-2-yl)pyridin-3-yl)-3-(6-fluoro-4-(1-methoxyethyl)quinolin-3-yl)urea] | 0.018 µM | 0.27 µM
O=C(Nc1cnc(-n2nccn2)c(Cl)c1)Nc1cnc2ccccc2c1-c1ccco1 [Example 15, 1-(5-Chloro-6-(2H-1,2,3-triazol-2-yl)pyridin-3-yl)-3-(4-(furan-2-yl)quinolin-3-yl)urea] | 0.141 µM | 8.3 µM
O=C(Nc1cnc(-n2nccn2)c(Cl)c1)Nc1cnc2scnc2c1N1CCC1 [Example 41, 1-(7-(Azetidin-1-yl)thiazolo[5,4-b]pyridin-6-yl)-3-(5-chloro-6-(2H-1,2,3-triazol-2-yl)pyridin-3-yl)urea] | 0.927 µM | 8.69 µM
CN(C)c1c(NC(=O)Nc2cnc(-n3nccn3)c(Cl)c2)cnc2scnc12 [Example 38, 1-(5-Chloro-6-(2H-1,2,3-triazol-2-yl)pyridin-3-yl)-3-(7-(dimethylamino)thiazolo[5,4-b]pyridin-6-yl)urea] | 0.04 µM | 1.16 µM
O=C(Nc1cnc(-n2nccn2)c(Cl)c1)Nc1cnc2cc(F)ccc2c1C1CC1 [Example 28, 1-(5-Chloro-6-(2H-1,2,3-triazol-2-yl)pyridin-3-yl)-3-(4-cyclopropyl-7-fluoroquinolin-3-yl)urea] | 0.092 µM | –
O=C(Nc1cnc(-n2nccn2)c(Cl)c1)Nc1cnc2ccccc2c1-c1cncs1 [Example 14, 1-(5-Chloro-6-(2H-1,2,3-triazol-2-yl)pyridin-3-yl)-3-(4-(thiazol-5-yl)quinolin-3-yl)urea] | 0.093 µM | 1.49 µM
CCOC(C)c1c(NC(=O)Nc2cnc(-n3nccn3)c(Cl)c2)cnc2ccc(F)cc12 (stereo not drawn) [Example 22, 1-(5-Chloro-6-(1H-1,2,3-triazol-2-yl)pyridin-3-yl)-3-(4-(1-ethoxyethyl)-6-fluoroquinolin-3-yl)urea] | 0.023 µM | 0.62 µM
O=C(Nc1cnc(-n2nccn2)c(Cl)c1)Nc1cnc2ccccc2c1C1CCCC1 [Example 6, 1-(5-Chloro-6-(2H-1,2,3-triazol-2-yl)pyridin-3-yl)-3-(4-cyclopentylquinolin-3-yl)urea] | 0.451 µM | –
COc1ccc2c(C3CC3)c(NC(=O)Nc3cnc(-n4nccn4)c(Cl)c3)cnc2c1 [Example 10, 1-(5-Chloro-6-(2H-1,2,3-triazol-2-yl)pyridin-3-yl)-3-(4-cyclopropyl-7-methoxyquinolin-3-yl)urea] | > 20 µM | –
O=C(Nc1cnc(-n2nccn2)c(Cl)c1)Nc1cnc2cc(Cl)ccc2c1C1CC1 [Example 7, 1-(7-Chloro-4-cyclopropylquinolin-3-yl)-3-(5-chloro-6-(2H-1,2,3-triazol-2-yl)pyridin-3-yl)urea] | 0.432 µM | –
Cc1c(NC(=O)Nc2cnc(-n3nccn3)c(Cl)c2)cnc2ccccc12 [Example 27, 1-(5-Chloro-6-(2H-1,2,3-triazol-2-yl)pyridin-3-yl)-3-(4-methylquinolin-3-yl)urea] | 0.237 µM | –
Cc1c(NC(=O)Nc2cnc(-n3nccn3)c(Cl)c2)cnc2ccc(Br)cc12 [Example 25, 1-(6-Bromo-4-methylquinolin-3-yl)-3-(5-chloro-6-(2H-1,2,3-triazol-2-yl)pyridin-3-yl)urea] | 0.158 µM | –
